Experiments:
[1] = system: β-amyloid (Aβ42) production; test: β-amyloid (Aβ42) production in APP-transfected HeLa cells, ELISA of culture solution; format: cell-based, human
Description: (§1) In order to examine the effect of the ethanol extract of Lycoris chejuensis obtained in Example <1-1> to inhibit β-amyloid production, HeLa cell line transfected with human amyloid precursor protein(APP) was cultured in DMEM culture medium (Cat. #11995, Gibco, USA). The cell line was supplied by Prof. Tae-Wan Kim, Department of Pathology, Columbia University Medical Center, New York, N.Y.10032, USA.
(§2) To the cell culture solution, the ethanol extract of Lycoris chejuensis (CJ) obtained in Example <1-1> was added, and then, it was cultured at 37° C. for 8 hours, and the amount of β-amyloid secreted in the culture solution was measured. More specifically, in order to quantify β-amyloid, two kinds of β-amyloid (Aβ40, Aβ42), Human β-Amyloid (Aβ40) and Human β-Amyloid (Aβ42) Colorimetric ELISA kits (#KHB3482 and #KHB3442; BioSource International, Inc., USA) were respectively used. The negative control means the case to which the extract of Lycoris chejuensis was not added.

[2] = system: viable cells; test: MTT Cell Proliferation assay, effect on cell death; format: cell-based
Description: In order to measure the effect of an extraction or a fraction of Lycoris chejuensis on cell death, MTT Cell Proliferation assay (ATCC catalog #30-1010K, Manassas, USA), which is a conventionally known method, was used. In particular, a cell was treated with various concentrations of an ethanol extract (CJ) of Lycoris chejuensis and a butanol fraction (CJ-3) of Lycoris chejuensis for 8 hours, and then, viable cells were quantified.

[3] = system: β-amyloid (Aβ40) production; test: β-amyloid (Aβ40) production in APP-transfected HeLa cells, ELISA of culture solution; format: cell-based, human
Description: as §1, §2

[4] = system: β-secretase product (sAPPβ) production; test: β-secretase product (sAPPβ) production in APP-transfected HeLa cells, sAPPβ-Wild Type Assay Kit; format: cell-based; conditions: Homo sapiens, read-out: Inhibition rate (%) of sAPPβ production compared to negative control
Source text: The cause of inhibition of β-amyloid production in the Experimental example <3> was examined in more detail. β-amyloid was produced from amyloid precursor(APP) by continuous actions of membrane protein hydrolytic enzyme, β-secretase (BACE1), and γ-secretase (Vassa and Citron, Neuron 27, 419-422, 2000). More specifically, β-secretase product(sAPPβ) is produced from amyloid precursor (APP) by the action of β-secretase, from which β-amyloid is produced by the action of γ-secretase.
Based on the above, it was identified whether or not dihydrolycoricidine obtained in Example <2-1> is capable of inhibiting the production of β-secretase product(sAPPβ). Specifically, the same procedure as Experimental example <3> was conducted except that sAPPβ-Wild Type Assay Kit (Immuno-Biological Laboratories Co., Ltd., Japan) was used for quantifying sAPPβ. The negative control means the case to which dihydrolycoricidine was not added.

[5] = system: β-amyloid (Aβ42) production; test: β-amyloid (Aβ42) production in APP-transfected HeLa cells, ELISA of culture solution; format: cell-based, human; conditions: for Inhibition rate (%) of Aβ42 production compared to that of negative control: 8 hours
[6] = system: β-amyloid (Aβ40) production; test: β-amyloid (Aβ40) production in APP-transfected HeLa cells, ELISA of culture solution; format: cell-based, human; conditions: for Inhibition rate (%) of Aβ40 production compared to that of negative control: 8 hours
[7] = 10, 5, 1, 0.5, 0.2, 0.1 and 0.05 μg/ml, 8 hours
[8] = Homo sapiens, HeLa, 8 h, read-out: Inhibition rate (%) of Aβ42 production compared to that of negative control
[9] = Homo sapiens, HeLa, 8 h, read-out: Inhibition rate (%) of Aβ40 production compared to that of negative control

COC1C=C2C3CN(Cc4cc5c(cc43)OCO5)C2CC1O (stereo not shown) [2-methoxypancracine]
β-amyloid (Aβ42) production (FIG. 7) [1, 7]: inhibited by 2-methoxypancracine in a concentration dependent manner | cells died ([2]; 5 μg/ml (FIG. 11)): ≤ 10% | β-amyloid (Aβ40) production (FIG. 7) [3, 7]: inhibited by 2-methoxypancracine in a concentration dependent manner

O=C1NC2C(CC(O)C(O)C2O)c2cc3c(cc21)OCO3 (stereo not shown) [dihydrolycoricidine]
cells died ([2]; 50 μM): ≤ 30% | Cell death (%) compared to negative control ([2]; dihydrolycoricidine 5 μM): 18.3% | Cell death (%) compared to negative control ([2]; dihydrolycoricidine 10 μM): 23.3% | Cell death (%) compared to negative control ([2]; dihydrolycoricidine 25 μM): 25.3% | Cell death (%) compared to negative control ([2]; dihydrolycoricidine 50 μM): 28.1% | inhibition at 5 µM ([4]; 5 μM): 6% | inhibition at 10 µM ([4]; 10 μM): 12% | inhibition at 25 µM ([4]; 25 μM): 28.9% | inhibition at 50 µM ([4]; 50 μM): 36.1% | inhibition at 5 µM ([5]; Homo sapiens, HeLa, 5 μM, read-out: Inhibition rate (%) of Aβ42 production compared to that of negative control): 58.8% | inhibition at 10 µM ([5]; Homo sapiens, HeLa, 10 μM, read-out: Inhibition rate (%) of Aβ42 production compared to that of negative control): 63.8% | inhibition at 25 µM ([5]; Homo sapiens, HeLa, 25 μM, read-out: Inhibition rate (%) of Aβ42 production compared to that of negative control): 88.8% | inhibition at 50 µM ([5]; Homo sapiens, HeLa, 50 μM, read-out: Inhibition rate (%) of Aβ42 production compared to that of negative control): 92.2% | inhibition at 5 µM ([6]; Homo sapiens, HeLa, 5 μM, read-out: Inhibition rate (%) of Aβ40 production compared to that of negative control): 28.4% | inhibition at 10 µM ([6]; Homo sapiens, HeLa, 10 μM, read-out: Inhibition rate (%) of Aβ40 production compared to that of negative control): 56.1% | inhibition at 25 µM ([6]; Homo sapiens, HeLa, 25 μM, read-out: Inhibition rate (%) of Aβ40 production compared to that of negative control): 59.8% | inhibition at 50 µM ([6]; Homo sapiens, HeLa, 50 μM, read-out: Inhibition rate (%) of Aβ40 production compared to that of negative control): 63%

O=C1NC2C(=CC(O)C(O)C2O)c2cc3c(cc21)OCO3 (stereo not shown) [lycoricidine]
inhibition at 0.01 µg/mL [1, 8]: 16% | inhibition at 0.1 µg/mL [1, 8]: 81.3% | inhibition at 1 µg/mL [1, 8]: 97.5% | inhibition at 10 µg/mL [1, 8]: 100% | cells died ([2]; 10 μM (lycoricidine)): ≤ 20% | Cell death (%) compared to negative control ([2]; 8 h, 0.01 μg/ml): 4.9% | Cell death (%) compared to negative control ([2]; 8 h, 0.1 μg/ml): 11.3% | Cell death (%) compared to negative control ([2]; 8 h, 1 μg/ml): 19.0% | Cell death (%) compared to negative control ([2]; 8 h, 10 μg/ml): 21.1% | inhibition at 0.01 µg/mL [3, 9]: 3.3% | inhibition at 0.1 µg/mL [3, 9]: 67% | inhibition at 1 µg/mL [3, 9]: 92.8% | inhibition at 10 µg/mL [3, 9]: 97.2%

O=C1NC2C(=CC(O)C(O)C2O)c2cc3c(c(O)c21)OCO3 (stereo not shown) [lycoricidinol]
cells died ([2]; 10 μM (lycoricidinol)): ≤ 20% | Cell death (%) compared to negative control ([2]; lycoricidinol 0.01 μg/ml): 10.3% | Cell death (%) compared to negative control ([2]; lycoricidinol 0.1 μg/ml): 11.6% | Cell death (%) compared to negative control ([2]; lycoricidinol 1 μg/ml): 16.5% | Cell death (%) compared to negative control ([2]; lycoricidinol 10 μg/ml): 19.3% | Inhibition rate (%) of Aβ42 production compared to that of negative control ([5]; lycoricidinol 0.01 μg/ml): 44.0% | Inhibition rate (%) of Aβ42 production compared to that of negative control ([5]; lycoricidinol 0.1 μg/ml): 97.0% | Inhibition rate (%) of Aβ42 production compared to that of negative control ([5]; lycoricidinol 1 μg/ml): 100% | Inhibition rate (%) of Aβ42 production compared to that of negative control ([5]; lycoricidinol 10 μg/ml): 100% | Inhibition rate (%) of Aβ40 production compared to that of negative control ([6]; lycoricidinol 0.01 μg/ml): 25.0% | Inhibition rate (%) of Aβ40 production compared to that of negative control ([6]; lycoricidinol 0.1 μg/ml): 90.4% | Inhibition rate (%) of Aβ40 production compared to that of negative control ([6]; lycoricidinol 1 μg/ml): 97.8% | Inhibition rate (%) of Aβ40 production compared to that of negative control ([6]; lycoricidinol 10 μg/ml): 98.4%
